Measured values reported in US10973815B2, “Delta opioid agonist mu opioid antagonist compositions and methods for treating Parkinsons disease” (priority 2016, dated 2021).
“Also recorded” adds a separate entry of the source.

What was measured:
[1] = test system: MPTP-lesioned macaques with established motor complications; experiment: Monotherapy with DPI-289 in MPTP-lesioned macaques with established motor complications due to L-DOPA; format: in vivo, Macaca fascicularis
Method: This activity is measured by an infra-red movement detector and captures all movement, normal and abnormal. Data are mean±s.e.m. […] N=8 for all treatment groups. */**/*** represents P<0.05, P<0.01 or P<0.001 cf vehicle-treatment; 2-way RM ANOVA (FIG. 2A) or 1-way RM-ANOVA with Holm-Sidak's Multiple Comparison test (FIGS. 2B and C). […].
Parkinsonian disability is scored by a trained neurologist who is blinded to treatment allocation but is trained to differentiate normal from abnormal movements and is able to distinguish diminution of Parkinsonian disability from dyskinetic (abnormal) movements. Data are mean±s.e.m. […] N=8 for all treatment groups. */**/*** represents P<0.05, P<0.01 or P<0.001 cf. vehicle-treatment; 2-way RM ANOVA (FIG. 6A) or 1-way RM-ANOVA with Holm-Sidak's Multiple Comparison test (FIGS. 6 B and C).
(§1) Eight cynomolgus monkeys (Macaca fascicularis, 6.4-6.8 years of age, 2.8-4.2 kg were used in this study. Animals were housed two or three per cage in the same housing room. The housing rooms were subject to a 12 hour light-dark cycle (lights on 7 a.m.), temperature 20-25° C. in a room containing only animals of the same sex. Fresh fruit, primate pellets and water were available ad libitum other than at times of overnight fasting prior to PK or behavioral assessment days.
(§2) The animals were rendered parkinsonian via once-daily subcutaneous injection of MPTP (0.2 mg/kg), administered for between 9 and 12 days, until the appearance of parkinsonism symptoms. After this time, a parkinsonian syndrome reached a moderate to marked level, over approximately 30 days, and stabilized. […] L-DOPA naïve animals have received no L-DOPA and those showing established motor complication have received L-DOPA in an amount 25 mg/kg orally twice daily for at least 2 months. L-DOPA is given with the decarboxylase inhibitor benserazide (as Madopar™).

[2] = test system: L-DOPA naïve MPTP-lesioned macaques; experiment: Monotherapy with Formula (i) in L-DOPA naïve MPTP-lesioned macaques; format: in vivo, Macaca fascicularis
Method: This activity is measured by an infra-red movement detector and captures all movement, normal and abnormal. MPTP-lesioned cynomolgus monkeys received acute oral administration of either vehicle or Formula (i) (1, 10 or 20 mg/kg) according to a randomized incomplete Latin Square-type. Levels of activity were assessed every minute over the entire 6 h observation. […] (FIG. 1A; time-course) or cumulated shown in FIG. 1B for 0-3 h; or FIG. 1C for 3-6 hr. N=8 for all treatment groups. */**/*** represents P<0.05, P<0.01 or P<0.001 cf. vehicle-treatment; 2-way RM ANOVA (FIG. 1A) or 1-way RM-ANOVA with Holm-Sidak's Multiple Comparison test (FIGS. 1B and C) (ns—not significant).
MPTP-lesioned cynomolgus monkeys received acute oral administration of either vehicle or Formula (i) (1, 10 or 20 mg/kg) according to a randomized incomplete Latin Square-type. Levels of bradykinesia were assessed every 10 min over the entire 6 h observation and total duration of ON-time (minutes for which bradykinesia was absent) was calculated. Data are mean±s.e.m. N=8 for all treatment groups. All P>0.05, cf vehicle-treatment; 1-way, RM-ANOVA with Holm-Sidak's Multiple Comparison test.
Parkinsonian disability is scored by a trained neurologist who is blinded to treatment allocation but is trained to differentiate normal from abnormal movements and is able to distinguish diminution of Parkinsonian disability from dyskinetic (abnormal) movements. MPTP-lesioned cynomolgus monkeys received acute oral administration of either vehicle or Formula (i) (1, 10 or 20 mg/kg) according to a randomized incomplete Latin Square-type. Levels of parkinsonian disability were assessed every 10 min over the entire 6 h observation. […] N=8 for all treatment groups. */P<0.05 cf. vehicle-treatment; 2-way RM ANOVA of ranked data (FIG. 5A) or 1-way RM-ANOVA with Holm-Sidak's Multiple Comparison test (FIGS. 5B and C).
as §1, §2

[3] = Oral bioavailability in macaques; set-up: species or system Macaca fascicularis; conditions: cynomolgus monkey, in vivo
Excerpt: ON-time represents lack of bradykinesia so mere improvement in bradykinesia would not be reflected in changes in ON-time. The oral bioavailability of the drug in these animals was only 1-2% so the lack of effect on ON-time is likely due to inadequate systemic exposure levels. Higher systemic levels of the drug may have a more profound effect on bradykinesia and which could translate into changes in ON-time.

[4] = 1, 10 or 20 mg/kg oral, Friedman test
[5] = any dose assessed (1, 10, 20 mg/kg oral)

CCN(CC)C(=O)c1ccc(C(c2cccc(O)c2)N2C[C@@H](C)N(Cc3cccc(F)c3)C[C@@H]2C)cc1 (stereo partly drawn) [DPI-289, 4-((alpha-R)-alpha-((2S,5R)-2,5-Dimethyl-4-(3-fluorobenzyl)-1-piperazinyl)-3-hydroxybenzyl)-N,N-diethylbenzamide]
bradykinesia ([1]; 20 mg/kg): significant change only in the first hour | ON-time ([1]; 20 mg/kg oral): only limited on-time | parkinsonian disability ([1]; 20 mg/kg, two to three hours after dosing): significant reduction in parkinsonian disability | postural impairment ([1]; 1, 10 and 20 mg/kg, two to four hours after dosing): significant reduction in postural impairment | range of movement ([1]; 1, 10 or 20 mg/kg, three to four hours after dose): increase in the range of movement | alertness ([1]; 10 or 20 mg/kg, two to four hours after dosing): significant reduction in deficits in alertness | dyskinesia ([1]; L-DOPA primed animals, 1, 10, 20 mg/kg): does not cause dyskinesia | duration of effect on parkinsonian disability ([1]; single dose of 20 mg/kg): about 4 hours | movement activity / motor impairment ([1]; single oral dose of 10 or 20 mg/kg): significantly alleviated motor impairment for 1 to 4 hours | total duration of ON-time (mean) ([2]; 1 mg/kg oral, 6 h observation): 46 ± 48 min | postural impairment level ([2]; 10 mg/kg oral, 1-2 h period of observation (2-3 h after treatment), P<0.01 cf. vehicle): absent-mild levels | increase in activity counts cf. vehicle ([2]; 10 mg/kg oral, 1-2 h period of observation (2-3 h after treatment), P<0.05): 62% | parkinsonian disability level ([2]; 10 mg/kg oral, 1-2 h period of observation (2-3 h after treatment), P<0.05 cf. vehicle (mild-moderate levels)): absent-mild levels | total duration of ON-time (mean) ([2]; 10 mg/kg oral, 6 h observation): 49 ± 48 min | bradykinesia level ([2]; 10 mg/kg oral, first four hours of observation (1-5 h after administration), P<0.05 cf. vehicle (moderate-marked levels)): mild-moderate levels | increase in activity counts cf. vehicle ([2]; 20 mg/kg oral, 1-2 h period of observation (2-3 h after treatment), P<0.01): 63% | increase in activity counts cf. vehicle ([2]; 20 mg/kg oral, 2-3 h period of observation, P<0.05): 82% | total duration of ON-time (mean) ([2]; 20 mg/kg oral, 6 h observation): 1 ± 1 min | dyskinesia ([2]; 1, 10 or 20 mg/kg oral, 6 h observation, listed as Formula (i)): did not evoke dyskinesia; also recorded: All zero values | average postural impairment cumulated 0-3 h ([2]; 1, 10 or 20 mg/kg oral, Friedman P=0.031, post-hoc Dunn's all P>0.05): significant effect of Formula (i) treatment | average bradykinesia cumulated 0-3 h ([2]; 1, 10 or 20 mg/kg oral, Friedman P=0.034, post-hoc Dunn's all P>0.05): significant effect of DPI-289 treatment | average bradykinesia cumulated 3-6 h [2, 4]: no significant effects | average parkinsonism cumulated over 0-3 h and 3-6 h [2, 4]: no significant effect | average postural impairment cumulated 3-6 h [2, 4]: no significant effects | average activity cumulated over 0-3 h and 3-6 h ([2]; 1, 10 or 20 mg/kg oral, cf. vehicle): no significant effect | alertness [2, 5]: no increase in levels of alertness | range of movement [2, 5]: no reduction in levels of impaired range of movement | total duration of ON-time cf. vehicle [2, 5]: no significant increase in total duration of ON-time | bioavailability [3]: 1 to 2%
